Counter-ions that a name gives are not always drawn. Like-named read-outs stand apart in the source and are kept apart here.
Legend:
[1] = tested on: hamster flank organ hair growth; experiment: Inhibition of hair growth: hamster flank organ hair mass after thirteen topical applications; format: in vivo, male intact Golden Syrian hamsters; conditions: 13 applications; for inhibition at 5 % strength / inhibition at 10 % strength / inhibition at 20 % strength / inhibition at 30 % strength: Mesocricetus auratus, pH 7-8, read-out: % Inhibition (± SEM)
Description: A vehicle or carrier was prepared having the following composition:
A group of male intact Golden Syrian hamsters was provided. These animals were considered acceptable models for human beard hair growth in that they display oval shaped flank organs, one on each side, each about 8 mm. in major diameter, which grow thick black and coarse hair similar to human beard hair. These organs produce hair in response to androgens in the hamster. The flank organs of each hamster were depilated by applying a thioglycolate based chemical depilatory (Surgex), and to one organ of each animal was applied 10-25 μl. of vehicle alone once a day, while to the other organ of each animal was applied an equal amount of vehicle containing the analog. After thirteen applications (one application per day for five days a week), the flank organs were shaved and the amount of recovered hair (hair mass) from each was weighed. Percent-reduction of hair growth was calculated by subtracting the hair mass (mg) value of the test compound treated side from the hair mass value of the vehicle treated side; the delta value obtained was then divided by the hair mass value of the vehicle treated side, and the resultant number was multiplied by 100.

[2] = tested on: hamster flank organ; conditions: topical; cited from earlier work
[3] = tested on: hair growth; conditions: intact males; Table 3, Group VI vs. Group X; cited from earlier work
[4] = tested on: sebum excretion; conditions: topical, cited from earlier work
[5] = tested on: animal sebaceous glands; conditions: female vs male; cited from earlier work
[6] = 5% by weight, 10-25 μl once a day, pH 7-8
[7] = 10% by weight, 10-25 μl once a day, pH 7-8
[8] = 20% by weight, 10-25 μl once a day, pH 7-8
[9] = 30% by weight, 10-25 μl once a day, pH 7-8
[10] = 5% by weight, 10-25 μl once a day, vs vehicle treated side
[11] = 10% by weight, 10-25 μl once a day, vs vehicle treated side
[12] = 20% by weight, 10-25 μl once a day, vs vehicle treated side
[13] = 30% by weight, 10-25 μl once a day, vs vehicle treated side

Compound	Hamster Flank Organ Hair Mass, Treated (± SEM) [1, 6]	Hamster Flank Organ Hair Mass, Treated (± SEM) [1, 7]	Hamster Flank Organ Hair Mass, Treated (± SEM) [1, 8]	Hamster Flank Organ Hair Mass, Treated (± SEM) [1, 9]	inhibition at 5 % strength [1, 10] [%]	inhibition at 10 % strength [1, 11] [%]	inhibition at 20 % strength [1, 12] [%]	inhibition at 30 % strength [1, 13] [%]	reduction in hair growth of the hamster flank organ [2]	reduction in the size of the flank organ [2]	Hamster Flank Organ Hair Mass, Treated (± SEM) ([1]; 10% comparison composition, pH 4.0)	% Inhibition (± SEM) ([1]; 10% comparison composition, vs vehicle treated side, pH 4.0) [%]	effect on inhibition of hair growth [3]	reducing sebum excretion rates ([4]; females)	reducing sebum excretion rates ([4]; males)	inhibition of testosterone metabolism and lipogenesis in sebaceous glands [5]
CC(C)(CO)C(O)C(=O)NCCCO (racemic) [DL-PTYA, D, or DL, Pantothenyl alcohol]	2.670 ± .23 mg	1.490 ± .30 mg	1.450 ± .21 mg	.708 ± .13 mg	-8.28 ± 7.51	40.3 ± 7.35	51.1 ± 7.49	70.8 ± 5.95								
CCC[C@]1(O)CC[C@H]2[C@@H]3CCC4=CC(=O)CC[C@]4(C)[C@H]3CC[C@@]21C [17β-hydroxy-17α-propylandrost-4-en-3-one]									substantial reduction in hair growth	reduction in the size of the flank organ						
CC(C)(CO)[C@@H](O)C(=O)NCCCO [D-PTYA, D, or DL, Pantothenyl alcohol]	1.069 ± .15 mg	1.095 ± .32 mg	.899 ± .30 mg	1.069 ± .26 mg	55.9 ± 4.32	48.3 ± 11	31.4 ± 13.8	34.8 ± 8.49								
NCCC[C@](N)(C(=O)O)C(F)F [DFMO, α-difluoromethyl ornithine, reference compound]											.631 ± .12 mg	66.10 ± 7.05				
CC(C)(CO)[C@@H](O)C(=O)NCCC(=O)O [PTA, DPantothenic acid hemicalcium salt]	.738 ± .13 mg	.424 ± .11 mg	.270 ± .12 mg	.160 ± .06 mg	67.3 ± 5.81	71.3 ± 8.96	85.8 ± 5.75	92.7 ± 2.76								
CC(C)(CO)[C@H](O)C(=O)NCCC(=O)[O-].[Na+] [PTAss, D-Pantothenic acid monosodium salt]	.644 ± .15 mg	.364 ± .10 mg	.500 ± .10 mg	.396 ± .95 mg	72.6 ± 5.18	80.1 ± 4.38	74.2 ± 4.83	79.8 ± 4.75								
CC(=O)[C@H]1CC[C@H]2[C@@H]3CCC4=CC(=O)CC[C@]4(C)[C@H]3CC[C@]12C [progesterone]													doubtful	effective in reducing sebum excretion rates in females	without effect in males	effective in the female but not in the male
